According to US20160338971A1, “NANO CO-ENCAPSULATION FOR THE PREVENTION AND TREATMENT OF VARIOUS DISORDERS” (priority 2015, published 2016):

Tested on: Human Pancreatic cancer cells (MPanc)
Experiment: Anti-cancer efficacy in athymic nude mice (subcutaneous pancreatic tumor implant)
Type: in vivo
Settings: 10 ug/implant in Matrigel near the tumor implant, tumors excised after 2 weeks, n=6 per group, Control 291 ± 25
From the text: Human Pancreatic cancer cells (MPanc) were implanted subcutaneously in nude mice at 1 million cells per site and after tumor growth to 150-200 mm3, animals were implanted with the various Nano composites near by the tumor implant.
The preceding data represents mean tumor weight±Standard Deviation (SD), n=6 per group, after 2 weeks of pancreatic cancer cell implant at 1 million per animals. Nano composites were implanted in a Matrigel near by the tumor implants

| Molecule | Mean Pancreatic Tumor Weight (mg) ± SD |
| --- | --- |
| C=CCSSC=CC[S+]([O-])CC=C (mixture of isomers) [Ajoene] | 188.45 ± 15.6 mg |
| O=C1O[C@H]2[C@@H]3OC(=O)c4cc(O)c(O)c(O)c4-c4c(O)c(O)c5oc(=O)c6c(c(O)c(O)c7oc(=O)c4c5c76)-c4c(cc(O)c(O)c4O)C(=O)OC[C@H]3OC(O)[C@@H]2OC(=O)c2cc(O)c(O)c(O)c2-c2c1cc(O)c(O)c2O (mixture of isomers) [Punicalagin] | 146.44 ± 16.4 mg |
| Oc1ccc(C=Cc2cc(O)cc(O)c2)cc1 [Resveratrol] | 198.44 ± 18.9 mg |
| C[S+]([O-])CCCCN=C=S (centres unmarked) [Sulforaphan] | 195.80 ± 21.2 mg |
| epigallocatechin-3-gallate [EGCG] | 145.11 ± 17.8 mg |
